Measurements taken from PubChem BioAssay AID179 (DTP/NCI, 2004).
Active and inactive are the calls of the source.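 Rule for the calls: active = compounds giving half or more protection of infected cells from virus-caused growth loss, again on retest; inactive = the rest.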 Where a SMILES comes first, the peptide text is derived from it. [ ]: non-standard residue; d: D form. pGlu = O=C1CC[CH](C(=O)O)N1; Thz = O=C(O)[CH]1CSCN1

Test system: CEM cells HIV-1 protection, formazan growth assay
Test: NCI AIDS Antiviral Assay
Conditions: for IC50: measured here: growth of uninfected CEM cells
In short: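 Screen of anti-HIV-1 activity in human CEM cells using a formazan-based growth measurement at five drug concentrations. Hits with 50% or greater protection were repeated, and confirmation required reproducible complete protection.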

SMILES | EC50 | IC50 | outcome
N#Cc1c(N)c2c(c(-c3ccccc3)c1-c1ccccc1)C(=O)N(N)C2=O | > 200 µM | 117 µM | –
CCOC(=O)C1=NN(c2ccccc2)C2=CC(C)=NN(C)C(=S)N21 | > 200 µM | > 200 µM | –
COC(=O)C(=O)C(C#N)c1cccc(O)c1C(=O)OC (stereo not drawn) | > 36.3 µM | > 36.3 µM | –
COC(=O)c1ccc(NCC2=CC(=O)C=CC2=O)cc1 | > 200 µM | 1 µM | –
Cn1cc(NC(=O)Nc2cc(C(=O)Nc3cc(C(=O)Nc4cc(C(=O)Nc5ccc6cc(S(=O)(=O)O)cc(S(=O)(=O)O)c6c5)n(C)c4)n(C)c3)n(C)c2)cc1C(=O)Nc1cc(C(=O)Nc2cc(C(=O)Nc3ccc4cc(S(=O)(=O)O)cc(S(=O)(=O)O)c4c3)n(C)c2)n(C)c1 | 0.977 µM | 117 µM | –
CCCN(CCC)c1nc2ccc(NC(=O)OCC)cc2s1 | > 42.7 µM | 32.4 µM | –
O=C1CCC(C(=O)N2CSCC2C(=O)O)N1 (stereo not drawn) ([pGlu]-[Thz]-OH; configuration not given here) | > 200 µM | > 200 µM | –
CN(C)c1nc2sc3c(c2c(=O)o1)CCCC3 | > 200 µM | 51.3 µM | –
COc1nc2c(c(=O)[nH]1)N=C(c1ccc([N+](=O)[O-])cc1)CC(c1ccccc1)N2 (stereo not drawn) | > 200 µM | 46.8 µM | –
C=C1CC(COc2ccc3c(C)cc(=O)oc3c2)(c2ccccc2)OC1=O (stereo not drawn) | > 200 µM | 0.603 µM | –
Clc1nncc2sc(-c3ccccc3)nc12 | > 151 µM | 8.32 µM | –
O=C1CN2C(c3ccccc3)=NN(c3ccc([N+](=O)[O-])cc3)C2(c2ccccc2)c2cc(Cl)ccc2N1CC1CC1 (stereo not drawn) | > 100 µM | > 100 µM | –
Cc1cn(C2CC([Se]c3ccccc3)C(CO)O2)c(=O)[nH]c1=O (stereo not drawn) | > 200 µM | 95.5 µM | –
COC(=O)/C(C#N)=C(\Nc1ccccc1)N1CCCC1 | > 200 µM | 138 µM | –
COC(=O)C1=C(C(=O)OC)C2(C)CCC(=O)C1O2 (stereo not drawn) | > 200 µM | > 200 µM | –
CC1(CO)C2CC3CN(C(=O)c4ccccc4)C(C2)[C@]31C (stereo partly drawn) | – | – | inactive
COC(=N)C(C)C | > 1820 µM | > 1820 µM | –
CC1(C)CCCC2(C)C3C(O)CC2(C)C(O)C31 (stereo not drawn) | > 282 µM | > 282 µM | –
COc1cc(/C=C2/SC(c3ccccc3)N(c3cccc([N+](=O)[O-])c3)C2=O)cc(OC)c1OC (stereo not drawn) | > 200 µM | 107 µM | –
COc1ccc2nc3ccccc3c(NCCCCN(C)CCCl)c2c1 | > 2 µM | 0.151 µM | –
Cn1c(=O)[nH]c2c([nH]c(=O)c(=O)n2C)c1=O | > 200 µM | > 200 µM | –

SMILES | EC50 | IC50 | outcome
O=c1[nH]c(=O)n(COCCOCc2ccccc2)cc1Nc1ccccc1 | > 200 µM | 56.2 µM | –
O=c1oc2ccccc2c2nc3cc(Cl)c(F)cc3cc12 | > 25.1 µM | > 25.1 µM | –
Cc1nn(C(=O)c2ccccc2O)c2c1C(c1ccc(O)cc1O)SC(N)=N2 (stereo not drawn) | > 2 µM | 0.331 µM | –
O=C(/C=C\c1ccccc1)Oc1ccc(/C=C2\CCCCC2=O)cc1 | > 200 µM | 7.08 µM | –
O=CC(O)C(O)C(O)C(O)COP(=O)(O)Cc1ccccc1 (stereo not drawn) | > 200 µM | > 200 µM | –
N#Cc1c(NC(=S)NC(=O)c2ccccc2)nc2c(c1-c1ccccc1)CCCC2 | > 200 µM | 141 µM | –
c1ccc(SC(Sc2ccccc2)=C2CCC2)cc1 | – | – | inactive
CCOC(=O)c1c2nc3ccccc3sc-2c(C(=O)OCC)c1C(=O)OCC | > 20 µM | 0.977 µM | –
FC1(F)ON2CCc3ccccc3C2[C@H]1c1ccccc1 (stereo partly drawn) | > 200 µM | 15.5 µM | –
O=[N+]([O-])/C=C/c1c[nH]c2c1ccc1ccccc12 | > 200 µM | 4.27 µM | –
CN(C)c1nc(N)nc(Nc2ccc(Br)cc2)c1N=O | > 200 µM | 37.2 µM | –
N=C(N)SCc1ccc(N=C=S)cc1 | > 200 µM | 83.2 µM | –
CCCCCCCCCCCCSC(=S)c1c(C)[nH]n(CCCCCCCCCCCC)c1=O | > 51.3 µM | > 51.3 µM | –
COC(=O)c1cc(C(=CCCN=[N+]=[N-])c2cc(Br)c(OC)c(C(=O)OC)c2)cc(Br)c1OC | 3.24 µM | 93.3 µM | –
CCCCCCCCCCCCCCCCCCNc1ccn(C2OC(CO)C(OP(=O)(O)OCC3CCC(n4ccc(N)nc4=O)O3)C2O)c(=O)n1 (stereo not drawn) | 1.1 µM | 15.8 µM | –
Cc1cc(=O)[nH]c(NNC(C#N)c2ccc(N(C)C)cc2)n1 (stereo not drawn) | > 63.1 µM | > 63.1 µM | –
COc1nc(NC2OCC(O)C(O)C2O)cc(=O)n1C (stereo not drawn) | – | – | inactive
CN(C)C1CS(=O)(=O)OC2=C1CCc1sccc12 (stereo not drawn) | > 25.1 µM | > 25.1 µM | –
CSc1snc2sc3c(Cl)nnnc3c12 | – | – | inactive
C[C@]12CC[C@@H]3c4ccc(OC(=O)c5ccccc5)cc4CC[C@H]3[C@@H]1CCC2OC(=O)c1cccc2c(=O)c3ccccc3[nH]c12 (stereo partly drawn) | > 151 µM | 7.94 µM | –
